Values joined by “and” are separate entries in the source; they are usually repeats but may differ in a detail not shown here. Equal entries are not always repeated.
What was measured:
gut bacteria = test: Bacterial translocation from the gut into organs: total of study group of 30; assay type: in vivo; settings: Withanone 2 mg/kg; positive/30 mice
Description: (§1) Peritoneal inflammation was induced by Zymosan A (Sigma Chemical) (Masashi et al. Zymosan, but Not Lipopolysaccharide, Triggers Severe and Progressive Peritoneal Injury Accompanied by complement Activation in a Rat Peritonitis Model) was prepared freshly in sterile, 0.9% w/v saline, and 0.5 ml was injected i.p. from day 0 to Day 5. The lymphocyte population in the peripheral blood was determined with a flow cytometer. Cells were phenotyped by flow cytometry with the following primary antibodies: CD4 (FITC) and CD8 (PE). Cells were gated broadly on all live lymphocyte cells, with only debris and multiple cell clusters being excluded. Analysis of mean fluorescence intensity was done and percentage cell population was evaluated. The test drugs were administered for 30 days after the induction of peritonitis. On 36th day the peritoneal cavity was lavaged with 1.5 ml saline, and after a 30-s gentle manual massage, 0.5 ml exudate was retrieved, centrifuged at 3000 g for 3 min, and frozen at 220° C. prior to cytokine and chemotactic-factor assessment.
Intestine serves as a barrier in preventing gut bacteria and/or endotoxin from spreading to organs and tissues. It is also known that bacterial translocation occurs in critically ill or immunocompromised patients, and the physical disruption of mucosal barrier in vivo rodent models seem to be a key factor Tor translocation (Deitch et al. Effect of hemorrhagic shock on bacterial translocation, intestinal morphology, and intestinal permeability in conventional and antibiotic-decontaminated rats; Critical Care Medicine; 1990 18(5)). Bacterial translocation from the gut into the peritoneal cavity and organs was analyzed. The mesenteric lymph nodes, liver, and spleen of mice, study group of 30, were removed using sterile instruments. The organs were then homogenized in 1 ml of sterile cooked meat broth and 50 μl of organ homogenate was spread on blood agar plates to detect aerobic bacteria and Eosin Methylene blue agar plates to detect specially for E. coli. These plates were then incubated at 37° C. for 2 days. […]

TNF-α = test: Cytometric Bead Array of peritoneal fluid, chronic zymosan peritonitis: TNF-α; assay type: in vivo, mouse; settings: 2 mg/kg, vs Zymosan control
Description: as §1, with “The test drugs were administered for 30 days after the induction of peritonitis. On 36th day the peritoneal cavity was lavaged with 1.5 ml saline, and after a 30-s gentle manual massage, 0.5 ml exudate was retrieved, centrifuged at 3000 g for 3 min, and frozen at 220° C. prior to cytokine and chemotactic-factor assessment.” left out
(§2) The Cytometric Bead Array (Mouse Inflammation kit) was used to study cytokines in peritoneal fluid. […] Briefly, a mixture of 6 capture bead populations (50 μl) with distinct fluorescence intensities (detected in FL3) coated with antibodies specific for the above cytokines was mixed with each sample/standard (50 μl). […] Following acquisition of data by two colour cytometric analysis, the sample results were analysed using CBA software (BD Biosciences). […] Individual cytokine concentration ratios were indicated by their fluorescent intensities and was determined by interpolation from the corresponding standard curve.

IL-12p70 = test: Cytometric Bead Array of peritoneal fluid, chronic zymosan peritonitis: IL-12; assay type: in vivo, mouse; settings: 2 mg/kg, vs Zymosan control
Description: as §1, with “The test drugs were administered for 30 days after the induction of peritonitis. On 36th day the peritoneal cavity was lavaged with 1.5 ml saline, and after a 30-s gentle manual massage, 0.5 ml exudate was retrieved, centrifuged at 3000 g for 3 min, and frozen at 220° C. prior to cytokine and chemotactic-factor assessment.” left out
as §2

MCP-1 = test: Cytometric Bead Array of peritoneal fluid, chronic zymosan peritonitis: MCP-1; assay type: in vivo, mouse; settings: 2 mg/kg, vs Zymosan control
Description: as §1, with “The test drugs were administered for 30 days after the induction of peritonitis. On 36th day the peritoneal cavity was lavaged with 1.5 ml saline, and after a 30-s gentle manual massage, 0.5 ml exudate was retrieved, centrifuged at 3000 g for 3 min, and frozen at 220° C. prior to cytokine and chemotactic-factor assessment.” left out
as §2

C3b = test: Complement activation product C3b in serum (ELISA), chronic zymosan peritonitis; assay type: in vivo, mouse; settings: 2 mg/kg
Description: as §1
Complement activation is a system of more than 30 proteins in the plasma and on cell surfaces. The activation takes place by three pathways, classical, lectin, and alternative. […]

[1] = tested on: Membrane attack complex (MAC); test: Membrane attack complex in peritoneal exudate (ELISA), chronic zymosan peritonitis; assay type: in vivo, mouse; settings: 2 mg/kg, day 36
Description: as §1
Assembly of Membrane attack complex (MAC) results from the complex pathway starting from C5 convertase cleaving C5 to form C5a and C5b. […] The protein concentrations were carried out by means of colorimetric measurement at 450 nm on an ELISA plate reader by interpolation from a standard curve. […]

## CC1=C(C)C(=O)O[C@@H]([C@@H](C)[C@@]2(O)CC[C@H]3[C@@H]4[C@@H]5O[C@@H]5[C@@]5(O)CC=CC(=O)[C@]5(C)[C@H]4CC[C@@]32C)C1 [Withanone]
Gut bacteria
  Bacterial translocation, Liver, total: 3/30
  Bacterial translocation, Mesenteric Lymph Nodes, total: 5 out of 30 and 5/30
  Bacterial translocation, Spleen, total: 3/30
TNF-α
  Inhibition of TNF-α: 58%
IL-12p70
  Inhibition of IL-12: 53%
MCP-1
  Inhibition of MCP-1: 51%
C3b
  Inhibition of complement activation product C3b compared to the Zymosan control: 44%
[1]
  Decrease of expression levels of MAC compared to the Zymosan control: 56%
